Laboratory results: US20060069132A1, “Azolecarboxamide herbicides” (priority 2004, published 2006)

Assays:
rice [1] = experiment: Test B flooded paddy test; format: in vivo, Oryza sativa; conditions: 1000 g ai/ha, scale 0 to 100 (0 no effect, 100 complete control)
Method in brief: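 Scale 0–100: zero equals no visible effect, 100 complete control, judged by eye relative to controls. Timing: 13 to 15 days in greenhouse post-treatment. Growth stage at spraying: two leaves (paddy) or one to four leaves, 2–18 cm (postemergence).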

large crabgrass = experiment: Test B pre-/postemergence herbicide test; format: in vivo, Digitaria sanguinalis; conditions: for Crabgrass, Large plant response rating: postemergence
Method in brief: (§1)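 Formulation: non-phytotoxic solvent mix with surfactant. Timing: preemergence on seed and postemergence on 2–18 cm plants, applied concurrently. Readout after 13–15 d greenhouse: visual 0–100 control rating against controls.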

wild oat = experiment: Test B postemergence herbicide test; format: in vivo, Avena fatua; conditions: postemergence
Method in brief: (§2)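 Plants grow to 1- to 4-leaf stage (2–18 cm) for postemergence spraying, or to 2-leaf stage for the paddy test. Formulated compound is applied. Greenhouse holding lasts 13–15 days. Response is scored visually relative to controls, 0 no effect to 100 complete control; a dash means no result.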

[2] = system: small flower umbrella sedge; experiment: Test B flooded paddy test; format: in vivo, Cyperus difformis; conditions: 1000 g ai/ha, scale 0 to 100 (0 no effect, 100 complete control)
Method in brief: (§3)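 Visual ratings, 0 (no effect) to 100 (complete control), made versus controls after 13–15 d greenhouse. Paddy plants treated at 2-leaf stage; postemergence plants at 1- to 4-leaf stage, 2–18 cm tall.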

morningglory = experiment: Test B pre-/postemergence herbicide test; format: in vivo, Ipomoea coccinea; conditions: for Morningglory plant response rating: postemergence
Method in brief: (§4)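 Visual rating, 0 (no effect) to 100 (complete control), versus untreated controls after 13–15 d in greenhouse. Pre- and postemergence applications (postemergence plants 2–18 cm, 1–4 leaves); flooded paddy arm at 2-leaf stage. Compounds in non-phytotoxic solvent plus surfactant.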

rice [3] = experiment: Test B pre-/postemergence herbicide test; format: in vivo, Oryza sativa; conditions: 0 = no effect, 100 = complete control, preemergence
Method in brief: as §1

lambsquarters = experiment: Test B pre-/postemergence herbicide test; format: in vivo, Chenopodium album; conditions: for Lambsquarters plant response rating: postemergence
Method in brief: as §1

giant foxtail = experiment: Test B pre-/postemergence herbicide test; format: in vivo, Setaria faberi; conditions: for Foxtail, Giant plant response rating: postemergence
Method in brief: as §1

velvetleaf = experiment: Test B pre-/postemergence herbicide test; format: in vivo, Abutilon theophrasti; conditions: for Velvetleaf plant response rating: postemergence
Method in brief: as §1

barnyardgrass [4] = experiment: Test B pre-/postemergence herbicide test; format: in vivo, Echinochloa crus-galli; conditions: for Barnyardgrass plant response rating: postemergence
Method in brief: as §4

blackgrass = experiment: Test B postemergence herbicide test; format: in vivo, Alopecurus myosuroides; conditions: postemergence
Method in brief: as §3

barnyardgrass [5] = experiment: Test B flooded paddy test; format: in vivo, Echinochloa crus-galli; conditions: 1000 g ai/ha, scale 0 to 100 (0 no effect, 100 complete control)
Method in brief: as §3

cocklebur = experiment: Test B pre-/postemergence herbicide test; format: in vivo, Xanthium strumarium; conditions: for Cocklebur plant response rating: postemergence
Method in brief: as §4

wheat = experiment: Test B postemergence herbicide test; format: in vivo, Triticum aestivum; design: key to Wheat plant response rating: 0 = no effect, 100 = complete control; conditions: postemergence
Method in brief: as §2

Surinam grass = experiment: Test B pre-/postemergence herbicide test; format: in vivo, Urochloa decumbens; conditions: for Surinam Grass plant response rating: postemergence
Method in brief: as §1

ducksalad = experiment: Test B flooded paddy test; format: in vivo, Heteranthera limosa; conditions: 1000 g ai/ha, scale 0 to 100 (0 no effect, 100 complete control)
Method in brief: as §3

pigweed = experiment: Test B pre-/postemergence herbicide test; format: in vivo, Amaranthus retroflexus; conditions: for Pigweed plant response rating: postemergence
Method in brief: as §1

corn = experiment: Test B pre-/postemergence herbicide test; format: in vivo, Zea mays; conditions: for Corn plant response rating: postemergence
Method in brief: as §1

[6] = 125 g ai/ha, 0 = no effect, 100 = complete control, preemergence
[7] = 125 g ai/ha, visual rating, scale 0 (no effect) to 100 (complete control)
[8] = 500 g ai/ha, visual rating, 0 = no effect, 100 = complete control, preemergence
[9] = 500 g ai/ha, scale 0 to 100, 0 is no effect, 100 is complete control

CCc1nn(C(C)(C)C)cc1C(=O)Nc1cccc(C(=O)N(C)C)n1 [Compound 292]
Rice plant response rating (rice [1]): 30 | Crabgrass, Large plant response rating (0 to 100 scale) (large crabgrass; [6]): 80 | Crabgrass, Large plant response rating (large crabgrass; [7]): 0 | Plant response rating, Crabgrass, Large (large crabgrass; [8]): 100 | Crabgrass, Large plant response rating (large crabgrass; [9]): 10 | Oat, Wild plant response rating (wild oat; [7]): 10 | Oat, Wild plant response rating (wild oat; [9]): 40 | Sedge, Umbrella plant response rating [2]: 60 | Morningglory plant response rating (0 to 100 scale) (morningglory; [6]): 0 | Morningglory plant response rating (morningglory; [7]): 0 | Plant response rating, Morningglory (morningglory; [8]): 30 | Morningglory plant response rating (morningglory; [9]): 20 | Rice plant response rating (0 to 100 scale) (rice [3]; 125 g ai/ha): 0 | Plant response rating, Rice (rice [3]; 500 g ai/ha, visual rating): 90 | Lambsquarters plant response rating (0 to 100 scale) (lambsquarters; [6]): 70 | Lambsquarters plant response rating (lambsquarters; [7]): 30 | Plant response rating, Lambsquarters (lambsquarters; [8]): 100 | Lambsquarters plant response rating (lambsquarters; [9]): 70 | Foxtail, Giant plant response rating (0 to 100 scale) (giant foxtail; [6]): 0 | Foxtail, Giant plant response rating (giant foxtail; [7]): 0 | Plant response rating, Foxtail, Giant (giant foxtail; [8]): 70 | Foxtail, Giant plant response rating (giant foxtail; [9]): 20 | Velvetleaf plant response rating (velvetleaf; [7]): 10 | Plant response rating, Velvetleaf (velvetleaf; [8]): 70 | Velvetleaf plant response rating (velvetleaf; [9]): 10 | Barnyardgrass plant response rating (0 to 100 scale) (barnyardgrass [4]; [6]): 10 | Barnyardgrass plant response rating (barnyardgrass [4]; [7]): 0 | Plant response rating, Barnyardgrass (barnyardgrass [4]; [8]): 90 | Barnyardgrass plant response rating (barnyardgrass [4]; [9]): 0 | Blackgrass plant response rating (blackgrass; [7]): 10 | Blackgrass plant response rating (blackgrass; [9]): 20 | Barnyardgrass plant response rating (barnyardgrass [5]): 20 | Cocklebur plant response rating (0 to 100 scale) (cocklebur; [6]): 0 | Cocklebur plant response rating (cocklebur; [7]): 0 | Plant response rating, Cocklebur (cocklebur; [8]): 40 | Cocklebur plant response rating (cocklebur; [9]): 10 | Wheat plant response rating (wheat; [7]): 0 | Wheat plant response rating (wheat; [9]): 20 | Surinam Grass plant response rating (0 to 100 scale) (Surinam grass; [6]): 20 | Surinam Grass plant response rating (Surinam grass; [7]): 0 | Plant response rating, Surinam Grass (Surinam grass; [8]): 100 | Surinam Grass plant response rating (Surinam grass; [9]): 20 | Ducksalad plant response rating (ducksalad): 0 | Pigweed plant response rating (0 to 100 scale) (pigweed; [6]): 40 | Pigweed plant response rating (pigweed; [7]): 20 | Plant response rating, Pigweed (pigweed; [8]): 100 | Pigweed plant response rating (pigweed; [9]): 30 | Corn plant response rating (0 to 100 scale) (corn; [6]): 0 | Corn plant response rating (corn; [7]): 10 | Plant response rating, Corn (corn; [8]): 80 | Corn plant response rating (corn; [9]): 20
